The record followed here is patent US7109193B2, “Tricyclic diazepines tocolytic oxytocin receptor antagonists” (Wyeth, priority 2001, dated 2006).

The assay has as its target T1, human vasopressin V2 receptor subtype (Homo sapiens, UniProt P30518).
T1 construct: host or cells: CHO cells (pZeoSV vector)
Put plainly: Vasopressin binding in Chinese Hamster Ovary cell membranes expressing human vasopressin V2 subtype receptors. The settings on record: 100 nM, CHO cell membranes, [3H]arginine vasopressin, values without parentheses. In outline: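 Radioligand displacement on membranes from CHO cells stably expressing human V2 receptor, 25 to 50 μg protein/well, in 50 mM Tris-HCl pH 7.4 with MgCl2, BSA and protease inhibitors. [^3H]arginine vasopressin (8 nM working solution) incubated 60 min at room temperature; bound label measured by filtration and scintillation counting.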

T1 sequence (P30518 whole entry): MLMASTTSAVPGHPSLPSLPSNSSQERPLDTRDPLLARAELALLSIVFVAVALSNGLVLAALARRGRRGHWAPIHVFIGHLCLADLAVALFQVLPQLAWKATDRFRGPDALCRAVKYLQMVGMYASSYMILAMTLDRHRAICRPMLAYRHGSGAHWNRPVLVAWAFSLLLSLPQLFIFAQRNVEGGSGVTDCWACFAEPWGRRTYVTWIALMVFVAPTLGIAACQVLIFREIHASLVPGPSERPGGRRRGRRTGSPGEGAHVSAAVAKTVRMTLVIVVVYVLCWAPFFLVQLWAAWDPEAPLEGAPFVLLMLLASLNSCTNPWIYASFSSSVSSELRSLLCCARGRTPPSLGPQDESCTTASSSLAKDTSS

In the case of `COc1cc(-c2ccccc2C)c(Cl)cc1C(=O)N1Cc2ccc(C(=O)NCCC3CCCN3C)n2Cc2ccccc21` (stereo not drawn) [Example 168, 10-[(6-Chloro-3-methoxy-2′-methyl[1,1′-biphenyl]-4-yl)carbonyl]-N-[2-(1-methyl-2-pyrrolidinyl)ethyl]-10,11-dihydro-5H-pyrrolo[2,1-c][1,4]benzodiazepine-3-carboxamide], the inhibition at 0.1 µM came out at 10%. The value for `Cc1ccccc1-c1ccc(C(=O)N2Cc3ccc(C(=O)N4CCN(C(C)C)CC4)n3Cc3ccccc32)cc1C` [Example 233, {10-[(2,2′-Dimethyl[1,1′-biphenyl]-4-yl)carbonyl]-10,11-dihydro-5H-pyrrolo[2,1-c][1,4]benzodiazepin-3-yl}(4-isopropyl-1-piperazinyl)methanone] was 23%; that for `COc1ccccc1-c1ccc(C(=O)N2Cc3ccc(C(=O)N(C)C4CCN(C)C4)n3Cc3ccccc32)cc1C` (stereo not drawn) [Example 185, 10-[(2′-Methoxy-2-methyl[1,1′-biphenyl]-4-yl)carbonyl]-N-methyl-N-(1-methyl-3-pyrrolidinyl)-10,11-dihydro-5H-pyrrolo[2,1-c][1,4]benzodiazepine-3-carboxamide] was 27%. The same measure for `Cc1ccccc1-c1ccc(C(=O)N2Cc3ccc(C(=O)N4CCN(CCN5CCOCC5)CC4)n3Cc3ccccc32)cc1` [Example 209, {10-[(2′-Methyl[1,1′-biphenyl]-4-yl)carbonyl]-10,11-dihydro-5H-pyrrolo[2,1-c][1,4]benzodiazepin-3-yl}{4-[2-(4-morpholinyl)ethyl]-1-piperazinyl}methanone]: 10%. Consider `C=CCN1CCN(C(=O)c2ccc3n2Cc2ccccc2N(C(=O)c2ccc(-c4ccccc4C(F)(F)F)c(C)c2)C3)CC1` [Example 230, (4-Allyl-1-piperazinyl)(10-{[2-methyl-2′-(trifluoromethyl)[1,1′-biphenyl]-4-yl]carbonyl}-10,11-dihydro-5H-pyrrolo[2,1-c][1,4]benzodiazepin-3-yl)methanone], for which the inhibition at 0.1 µM is 4%. Consider `COc1cc(C(=O)N2Cc3ccc(C(=O)N4CCN(CCN5CCOCC5)CC4)n3Cc3ccccc32)ccc1-c1ccccc1C` [Example 210, {10-[(2-Methoxy-2′-methyl[1,1′-biphenyl]-4-yl)carbonyl]-10,11-dihydro-5H-pyrrolo[2,1-c][1,4]benzodiazepin-3-yl}{4-[2-(4-morpholinyl)ethyl]-1-piperazinyl}methanone], for which the inhibition at 0.1 µM is 17%. `Cc1ccccc1-c1ccc(C(=O)N2Cc3ccc(C(=O)N4CCN(CCN(C)C)CC4)n3Cc3ccccc32)cc1` [Example 200, {4-[2-(Dimethylamino)ethyl]-1-piperazinyl}{10-[(2′-methyl[1,1′-biphenyl]-4-yl)carbonyl]-10,11-dihydro-5H-pyrrolo[2,1-c][1,4]benzodiazepin-3-yl}methanone]: the inhibition at 0.1 µM came out at 10%. Turning to `COc1cc(C(=O)N2Cc3ccc(C(=O)N4CCN(CCN(C)C)CC4)n3Cc3ccccc32)ccc1-c1cccc2ccccc12` [Example 203, {4-[2-(Dimethylamino)ethyl]-1-piperazinyl}{10-[3-methoxy-4-(1-naphthyl)benzoyl]-10,11-dihydro-5H-pyrrolo[2,1-c][1,4]benzodiazepin-3-yl}methanone], the inhibition at 0.1 µM is 28%. For the compound `COc1cc(-c2ccccc2C)c(Cl)cc1C(=O)N1Cc2ccc(C(=O)N3CCN(CCN4CCOCC4)CC3)n2Cc2ccccc21` [Example 217, {10-[(6-Chloro-3-methoxy-2′-methyl[1,1′-biphenyl]-4-yl)carbonyl]-10,11-dihydro-5H -pyrrolo[2,1-c][1,4]benzodiazepin-3-yl}{4-[2-(4-morpholinyl)ethyl]-1-piperazinyl}methanone], the inhibition at 0.1 µM came to 34%. In the case of `Cc1cc(C(=O)N2Cc3ccc(C(=O)N4CCN(C(C)C)CC4)n3Cc3ccccc32)ccc1-c1ccccc1C(F)(F)F` [Example 240, (4-Isopropyl-1-piperazinyl)(10-{[2-methyl-2′-(trifluoromethyl)[1,1′-biphenyl]-4-yl]carbonyl}-10,11-dihydro-5H-pyrrolo[2,1-c][1,4]benzodiazepin-3-yl)methanone], the inhibition at 0.1 µM came to 9%.

As for `COc1cccc(-c2ccc(C(=O)N3Cc4ccc(C(=O)N5CCN(C(C)C)CC5)n4Cc4ccccc43)cc2C)c1` [Example 235, (4-Isopropyl-1-piperazinyl){10-[(3′-methoxy-2-methyl[1,1′-biphenyl]-4-yl)carbonyl]-10,11-dihydro-5H-pyrrolo[2,1-c][1,4]benzodiazepin-3-yl}methanone], the inhibition at 0.1 µM turned out to be 17%. The value for `COc1ccccc1-c1ccc(C(=O)N2Cc3ccc(C(=O)O)n3Cc3ccccc32)cc1C` [Example 9, 10-[(2′-Methoxy-2-methyl-[1,1′-biphenyl]-4-yl)carbonyl]-10,11-dihydro-5H-pyrrolo[2,1-c][1,4]benzodiazepine-3-carboxylic acid] was 42%. The same measure for `Cc1ccccc1-c1ccc(C(=O)N2Cc3ccc(C(=O)N4CCN(CCN5CCOCC5)CC4)n3Cc3ccccc32)cc1C` [Example 218, {10-[(2,2′-Dimethyl[1,1′-biphenyl]-4-yl)carbonyl]-10,11-dihydro-5H-pyrrolo[2,1-c][1,4]benzodiazepin-3-yl}{4-[2-(4-morpholinyl)ethyl]-1-piperazinyl}methanone]: 23%; for `COc1ccccc1-c1ccc(C(=O)N2Cc3ccc(C(=O)N(C)C4CCN(C)C4)n3Cc3ccccc32)cc1OC` (stereo not drawn) [Example 193, 10-[(2,2′-Dimethoxy[1,1′-biphenyl]-4-yl)carbonyl]-N-methyl-N-(1-methyl-3-pyrrolidinyl)-10,11-dihydro-5H-pyrrolo[2,1-c][1,4]benzodiazepine-3-carboxamide]: 16%. As to `C=CCN1CCN(C(=O)c2ccc3n2Cc2ccccc2N(C(=O)c2ccc(-c4cccc(OC)c4)c(OC)c2)C3)CC1` [Example 228, (4-Allyl-1-piperazinyl){10-[(2,3′-dimethoxy[1,1′-biphenyl]-4-yl)carbonyl]-10,11-dihydro-5H -pyrrolo[2,1-c][1,4]benzodiazepin-3-yl}methanone], the inhibition at 0.1 µM came out at 20%.

In the case of `C=CCN1CCN(C(=O)c2ccc3n2Cc2ccccc2N(C(=O)c2ccc(-c4cccc(OC)c4)c(C)c2)C3)CC1` [Example 223, (4-Allyl-1-piperazinyl){10-[(3′-methoxy-2-methyl[1,1′-biphenyl]-4-yl)carbonyl]-10,11-dihydro-5H-pyrrolo[2,1-c][1,4]benzodiazepin-3-yl}methanone], the inhibition at 0.1 µM came out at 13%. The value for `Cc1cc(C(=O)N2Cc3ccc(C(=O)NCCC4CCCN4C)n3Cc3ccccc32)ccc1-c1ccccc1C(F)(F)F` (stereo not drawn) [Example 174, N-[2-(1-Methyl-2-pyrrolidinyl)ethyl]-10-{[2-methyl-2′-(trifluoromethyl)[1,1′-biphenyl]-4-yl]carbonyl}-10,11-dihydro-5H-pyrrolo[2,1-c][1,4]benzodiazepine-3-carboxamide] was 7%; that for `Cc1cc(C(=O)N2Cc3ccc(C(=O)N(C)C4CCN(C)C4)n3Cc3ccccc32)ccc1-c1ccccc1C(F)(F)F` (stereo not drawn) [Example 194, N-Methyl-N-(1-methyl-3-pyrrolidinyl)-10-{[2-methyl-2′-(trifluoromethyl)[1,1′-biphenyl]-4-yl]carbonyl}-10,11-dihydro-5H-pyrrolo[2,1-c][1,4]benzodiazepine-3-carboxamide] was 0%. Consider `COc1cccc(-c2ccc(C(=O)N3Cc4ccc(C(=O)NCCN5CCCCC5)n4Cc4ccccc43)cc2OC)c1` [Example 159, 10-[(2,3′-Dimethoxy[1,1′-biphenyl]-4-yl)carbonyl]-N-[2-(1-piperidinyl)ethyl]-10,11-dihydro-5H-pyrrolo[2,1-c][1,4]benzodiazepine-3-carboxamide], for which the inhibition at 0.1 µM was determined as 16%. On to `C=CCN1CCN(C(=O)c2ccc3n2Cc2ccccc2N(C(=O)c2ccc(-c4ccccc4OC)c(C)c2)C3)CC1` [Example 222, (4-Allyl-1-piperazinyl){10-[(2′-methoxy-2-methyl[1,1′-biphenyl]-4-yl)carbonyl]-10,11-dihydro-5H-pyrrolo[2,1-c][1,4]benzodiazepin-3-yl}methanone], for which the inhibition at 0.1 µM turned out to be 1%. As to `COc1cc(C(=O)N2Cc3ccc(C(=O)N4CCN(C(C)C)CC4)n3Cc3ccccc32)ccc1-c1cccc2ccccc12` [Example 236, (4-Isopropyl-1-piperazinyl){10-[3-methoxy-4-(1-naphthyl)benzoyl]-10,11-dihydro-5H -pyrrolo[2,1-c][1,4]benzodiazepin-3-yl}methanone], the inhibition at 0.1 µM came to 5%.
